# Results reported in ChEMBL document CHEMBL1201862, “PubChem BioAssay data set” (2004).
# The source made the active and inactive calls.
# How the values were obtained:
# [1] = biological target: T1, Histone-lysine N-methyltransferase NSD2 (Homo sapiens, UniProt O96028); type: biochemical
# T1 sequence (O96028 whole entry): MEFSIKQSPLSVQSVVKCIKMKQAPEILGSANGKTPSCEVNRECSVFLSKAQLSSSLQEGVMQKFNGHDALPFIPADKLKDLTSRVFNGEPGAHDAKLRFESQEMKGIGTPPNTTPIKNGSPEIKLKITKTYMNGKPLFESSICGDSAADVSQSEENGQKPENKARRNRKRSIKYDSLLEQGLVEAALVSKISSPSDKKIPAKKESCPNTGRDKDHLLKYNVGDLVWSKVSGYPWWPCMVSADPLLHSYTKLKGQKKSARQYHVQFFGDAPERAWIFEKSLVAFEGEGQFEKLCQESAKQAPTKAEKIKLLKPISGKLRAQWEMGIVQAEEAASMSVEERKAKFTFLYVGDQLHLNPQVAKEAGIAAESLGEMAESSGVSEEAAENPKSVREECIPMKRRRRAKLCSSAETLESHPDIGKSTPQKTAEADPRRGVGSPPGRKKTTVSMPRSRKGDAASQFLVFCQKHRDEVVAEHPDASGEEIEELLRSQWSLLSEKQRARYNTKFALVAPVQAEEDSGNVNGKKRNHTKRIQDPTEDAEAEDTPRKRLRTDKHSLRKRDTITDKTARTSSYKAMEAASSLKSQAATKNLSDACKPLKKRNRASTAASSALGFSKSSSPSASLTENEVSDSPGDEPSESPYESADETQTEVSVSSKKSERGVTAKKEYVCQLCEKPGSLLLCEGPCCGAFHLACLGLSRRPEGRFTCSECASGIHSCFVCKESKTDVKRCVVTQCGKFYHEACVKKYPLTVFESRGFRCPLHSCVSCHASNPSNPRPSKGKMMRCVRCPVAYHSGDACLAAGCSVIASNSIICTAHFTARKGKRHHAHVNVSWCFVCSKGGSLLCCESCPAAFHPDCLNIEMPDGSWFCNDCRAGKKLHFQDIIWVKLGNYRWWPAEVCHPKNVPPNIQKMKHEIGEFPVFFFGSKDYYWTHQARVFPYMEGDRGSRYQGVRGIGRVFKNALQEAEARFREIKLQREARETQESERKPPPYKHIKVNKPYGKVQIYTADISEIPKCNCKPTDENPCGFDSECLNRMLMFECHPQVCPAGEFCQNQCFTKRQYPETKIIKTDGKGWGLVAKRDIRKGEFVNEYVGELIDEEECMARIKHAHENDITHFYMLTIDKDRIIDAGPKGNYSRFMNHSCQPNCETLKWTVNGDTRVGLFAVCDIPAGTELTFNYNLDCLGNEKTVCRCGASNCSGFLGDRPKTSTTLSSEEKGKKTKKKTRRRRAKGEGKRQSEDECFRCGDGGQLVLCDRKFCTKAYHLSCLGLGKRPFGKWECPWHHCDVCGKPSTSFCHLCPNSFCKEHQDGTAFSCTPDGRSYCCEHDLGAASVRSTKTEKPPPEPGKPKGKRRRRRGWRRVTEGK
# [2] = biological target: Genome polyprotein (dengue virus type 2, UniProt P29990); test: Dengue-2 NS5 methyltransferase inhibitors, primary screen, biochemical, confirmation dose response (AID 588689); type: functional
# [3] = biological target: T2, Corticotropin-releasing factor receptor 2/Corticotropin-releasing factor-binding protein (Homo sapiens, UniProt P24387+Q13324); test: Dose Response confirmation of uHTS hits for small molecule antagonists of the CRF-binding protein and CRF-R2 receptor complex.; type: functional; details: read-out: IC50_Mean
# T2 sequence (Q13324 whole entry): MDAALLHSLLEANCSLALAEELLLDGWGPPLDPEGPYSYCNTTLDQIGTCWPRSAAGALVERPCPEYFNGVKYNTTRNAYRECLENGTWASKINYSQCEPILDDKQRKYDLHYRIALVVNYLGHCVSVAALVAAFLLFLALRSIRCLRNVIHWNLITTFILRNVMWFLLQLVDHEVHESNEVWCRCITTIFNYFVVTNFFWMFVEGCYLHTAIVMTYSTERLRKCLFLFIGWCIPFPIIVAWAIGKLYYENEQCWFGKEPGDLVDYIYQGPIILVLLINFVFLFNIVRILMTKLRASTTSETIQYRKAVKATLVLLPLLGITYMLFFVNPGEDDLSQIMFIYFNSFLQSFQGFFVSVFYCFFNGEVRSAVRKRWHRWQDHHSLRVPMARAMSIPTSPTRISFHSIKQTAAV
# T2 sequence (P24387 whole entry): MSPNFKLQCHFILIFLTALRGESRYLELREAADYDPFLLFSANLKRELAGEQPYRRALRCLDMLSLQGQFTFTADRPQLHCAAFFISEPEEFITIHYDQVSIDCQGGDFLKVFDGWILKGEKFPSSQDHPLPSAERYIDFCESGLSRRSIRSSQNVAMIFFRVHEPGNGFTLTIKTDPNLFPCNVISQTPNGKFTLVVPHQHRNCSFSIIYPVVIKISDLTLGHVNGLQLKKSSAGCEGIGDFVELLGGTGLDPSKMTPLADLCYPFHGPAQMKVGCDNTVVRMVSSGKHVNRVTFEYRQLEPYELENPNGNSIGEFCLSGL
# [4] = biological target: T2, Corticotropin-releasing factor receptor 2/Corticotropin-releasing factor-binding protein; test: activators of CRF receptor 2 with binding protein – uHTS hits, confirmation (AID 602473); type: functional; details: read-out: EC50_Mean
# [5] = test system: HEK293; test: inhibitors of LMP1-driven NF-kB reporter, dose response, cell-based, HEK293, luciferase, cherry-pick (AID 588343); type: functional; details: Homo sapiens
# [6] = biological target: T3, Polyadenylate-binding protein 1 (Homo sapiens, UniProt P11940); test: PABP1 MLLE–PAM2 interaction inhibitors, dose response, miRNA deadenylation inhibitor project, biochemical, fluorescence polarization, Cy5-PAM2 peptide, secondary (AID 602260); type: functional; details: read-out: IC50_Mean
# [7] = biological target: T3, Polyadenylate-binding protein 1; test: PABP1 MLLE–PAM2 binding inhibitor potency, dose response, biochemical, fluorescence polarization, FITC-PAM2 peptide (AID 602259); type: functional; details: read-out: IC50_Mean
# [8] = Shn3 3'UTR reporter inhibitors, dose response, cell-based, Clone20 osteoblasts, firefly luciferase, cherry-picked (AID 624132); type: functional;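 note: firefly luciferase luminescence from reporter carrying the Shn3 3'UTR in osteoblasts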
# [9] = NIH-3T3 fibroblast cytotoxicity, dose response, cytotoxicity control, cell-based, fluorescence, Alamar Blue, secondary assay (AID 2327); type: functional;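 note: NIH-3T3 mouse fibroblasts cultured with fluconazole at 8 µg/mL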
# [10] = test system: Streptococcus sp. 'group A'; test: growth inhibition of control SK(-) GAS strain, dose response, counter-screen for streptokinase expression inhibitor project, luminescence, kanamycin, BacTiterGlo, confirmation (AID 1900); type: functional, organism-based
# [11] = cells; type: functional, cell-based
# [12] = Luminescence Cell-Based Dose Response HTS to Identify Inhibitors of 5'UTR Stem-Loop Driven Prion Protein mRNA Translation in H4 Neuroglioblastoma Cells. [Related pubchem assays: 1827 (Project Summary), 1813 (Primary HTS)]; type: functional
# [13] = inhibitors of SNCA 5'UTR-driven reporter translation, confirmation, H4 neuroglioma cells, luminescence (AID 1988); type: functional, cell-based
# [14] = C. albicans growth with fluconazole, confirmation, fluorescence, retest (AID 2467); type: functional, cell-based
# [15] = cells; type: functional, cell-based; remark: listed apart in the source
# [16] = test system: Streptococcus; test: Group A Streptococcus viability loss, dose response, counter-screen for streptokinase expression inhibitor project, luminescence, BacTiterGlo (AID 1915); type: functional, organism-based;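 note: potency for reduction of bacterial viability or growth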
# [17] = biological target: T4, Rac GTPase-activating protein 1 (Homo sapiens, UniProt Q9H0H5); test: MgcRacGAP GTPase-activating activity inhibitors, confirmation, biochemical, ADP Hunter fluorescence, primary and confirmatory (AID 624330); type: functional
# T4 sequence (Q9H0H5 whole entry): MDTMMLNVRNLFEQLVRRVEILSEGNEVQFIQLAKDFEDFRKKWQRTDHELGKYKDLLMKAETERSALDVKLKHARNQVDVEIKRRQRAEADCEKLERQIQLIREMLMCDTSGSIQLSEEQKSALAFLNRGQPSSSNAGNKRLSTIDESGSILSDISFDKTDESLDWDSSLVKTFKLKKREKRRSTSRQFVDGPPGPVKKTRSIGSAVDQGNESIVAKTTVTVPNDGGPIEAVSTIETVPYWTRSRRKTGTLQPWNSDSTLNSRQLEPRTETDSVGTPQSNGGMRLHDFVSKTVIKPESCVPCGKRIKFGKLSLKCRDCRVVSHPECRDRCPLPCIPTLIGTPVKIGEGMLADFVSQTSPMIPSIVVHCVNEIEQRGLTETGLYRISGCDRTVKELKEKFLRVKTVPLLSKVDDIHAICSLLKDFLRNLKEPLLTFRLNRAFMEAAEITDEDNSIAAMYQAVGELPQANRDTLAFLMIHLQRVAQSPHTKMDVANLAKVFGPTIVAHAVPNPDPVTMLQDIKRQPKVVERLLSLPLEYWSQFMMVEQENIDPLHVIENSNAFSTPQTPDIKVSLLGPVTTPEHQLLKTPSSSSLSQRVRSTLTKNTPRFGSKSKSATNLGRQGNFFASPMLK
# [18] = biological target: T5, DNA repair protein RAD52 homolog (Homo sapiens, UniProt P43351); type: functional, biochemical
# T5 sequence (P43351 whole entry): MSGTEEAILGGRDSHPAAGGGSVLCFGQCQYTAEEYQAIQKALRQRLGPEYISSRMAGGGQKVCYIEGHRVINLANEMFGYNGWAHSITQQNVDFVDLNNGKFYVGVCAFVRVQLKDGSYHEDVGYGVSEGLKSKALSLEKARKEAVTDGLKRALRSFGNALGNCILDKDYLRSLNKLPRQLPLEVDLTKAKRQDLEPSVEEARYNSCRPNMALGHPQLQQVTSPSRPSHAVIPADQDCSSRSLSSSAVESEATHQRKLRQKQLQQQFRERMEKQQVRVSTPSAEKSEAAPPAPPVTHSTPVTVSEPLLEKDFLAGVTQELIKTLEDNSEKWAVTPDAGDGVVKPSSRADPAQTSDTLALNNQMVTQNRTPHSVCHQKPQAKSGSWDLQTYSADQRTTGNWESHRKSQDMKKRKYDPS
# [19] = biological target: T6, RNA-binding protein pos-1 (Caenorhabditis elegans, UniProt G5EF15); test: inhibitors of POS-1/mex-3 RNA binding, dose response, biochemical, fluorescence polarization (AID 1964);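 note: purified POS-1 fused to maltose binding protein made in E. coli; potency of compounds blocking POS-1 binding to fluorescent RNA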
# T6 sequence (G5EF15 whole entry): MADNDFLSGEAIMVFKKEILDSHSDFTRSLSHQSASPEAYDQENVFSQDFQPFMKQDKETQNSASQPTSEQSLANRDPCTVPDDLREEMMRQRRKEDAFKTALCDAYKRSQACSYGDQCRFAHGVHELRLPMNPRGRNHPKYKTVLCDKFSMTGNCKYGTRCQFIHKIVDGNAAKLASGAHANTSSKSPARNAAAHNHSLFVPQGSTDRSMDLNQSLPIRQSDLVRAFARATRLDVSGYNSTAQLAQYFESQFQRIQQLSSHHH
# [20] = biological target: T7, Zinc finger protein mex-5 (Caenorhabditis elegans, UniProt Q9XUB2); test: MEX-5/TCR-2 RNA interaction inhibitors, dose response, biochemical, C. elegans, fluorescence polarization (AID 1960)
# T7 sequence (Q9XUB2 whole entry): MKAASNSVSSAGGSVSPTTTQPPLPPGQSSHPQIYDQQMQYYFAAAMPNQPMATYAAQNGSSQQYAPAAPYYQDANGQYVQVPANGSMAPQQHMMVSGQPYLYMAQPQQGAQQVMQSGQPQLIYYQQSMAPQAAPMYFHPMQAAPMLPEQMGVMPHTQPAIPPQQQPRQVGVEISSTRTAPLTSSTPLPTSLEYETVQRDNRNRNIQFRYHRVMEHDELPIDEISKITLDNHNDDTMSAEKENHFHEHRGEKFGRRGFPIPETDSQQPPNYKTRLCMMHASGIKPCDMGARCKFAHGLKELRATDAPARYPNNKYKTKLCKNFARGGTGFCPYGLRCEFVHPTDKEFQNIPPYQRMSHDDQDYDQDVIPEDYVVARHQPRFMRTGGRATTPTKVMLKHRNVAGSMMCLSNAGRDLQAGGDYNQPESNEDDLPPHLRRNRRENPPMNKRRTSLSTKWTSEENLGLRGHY
# T3 sequence (P11940 whole entry): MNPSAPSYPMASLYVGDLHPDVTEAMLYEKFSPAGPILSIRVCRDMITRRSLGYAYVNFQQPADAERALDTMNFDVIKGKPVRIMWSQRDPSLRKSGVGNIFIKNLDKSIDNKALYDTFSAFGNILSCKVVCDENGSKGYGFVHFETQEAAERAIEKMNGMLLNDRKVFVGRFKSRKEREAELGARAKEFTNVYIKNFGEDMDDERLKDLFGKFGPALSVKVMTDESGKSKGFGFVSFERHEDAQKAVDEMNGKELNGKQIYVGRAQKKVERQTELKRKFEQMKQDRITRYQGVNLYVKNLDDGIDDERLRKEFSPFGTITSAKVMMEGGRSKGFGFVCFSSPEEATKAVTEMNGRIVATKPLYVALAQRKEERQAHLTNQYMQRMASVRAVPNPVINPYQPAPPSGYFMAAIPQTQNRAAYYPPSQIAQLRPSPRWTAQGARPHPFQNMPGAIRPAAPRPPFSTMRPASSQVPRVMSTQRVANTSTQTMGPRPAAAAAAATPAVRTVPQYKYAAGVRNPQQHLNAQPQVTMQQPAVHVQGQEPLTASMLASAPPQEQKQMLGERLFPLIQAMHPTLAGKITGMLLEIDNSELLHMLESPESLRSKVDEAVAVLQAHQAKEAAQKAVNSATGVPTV
# Sequence of Genome polyprotein (P29990 2492-3391 limits assumed): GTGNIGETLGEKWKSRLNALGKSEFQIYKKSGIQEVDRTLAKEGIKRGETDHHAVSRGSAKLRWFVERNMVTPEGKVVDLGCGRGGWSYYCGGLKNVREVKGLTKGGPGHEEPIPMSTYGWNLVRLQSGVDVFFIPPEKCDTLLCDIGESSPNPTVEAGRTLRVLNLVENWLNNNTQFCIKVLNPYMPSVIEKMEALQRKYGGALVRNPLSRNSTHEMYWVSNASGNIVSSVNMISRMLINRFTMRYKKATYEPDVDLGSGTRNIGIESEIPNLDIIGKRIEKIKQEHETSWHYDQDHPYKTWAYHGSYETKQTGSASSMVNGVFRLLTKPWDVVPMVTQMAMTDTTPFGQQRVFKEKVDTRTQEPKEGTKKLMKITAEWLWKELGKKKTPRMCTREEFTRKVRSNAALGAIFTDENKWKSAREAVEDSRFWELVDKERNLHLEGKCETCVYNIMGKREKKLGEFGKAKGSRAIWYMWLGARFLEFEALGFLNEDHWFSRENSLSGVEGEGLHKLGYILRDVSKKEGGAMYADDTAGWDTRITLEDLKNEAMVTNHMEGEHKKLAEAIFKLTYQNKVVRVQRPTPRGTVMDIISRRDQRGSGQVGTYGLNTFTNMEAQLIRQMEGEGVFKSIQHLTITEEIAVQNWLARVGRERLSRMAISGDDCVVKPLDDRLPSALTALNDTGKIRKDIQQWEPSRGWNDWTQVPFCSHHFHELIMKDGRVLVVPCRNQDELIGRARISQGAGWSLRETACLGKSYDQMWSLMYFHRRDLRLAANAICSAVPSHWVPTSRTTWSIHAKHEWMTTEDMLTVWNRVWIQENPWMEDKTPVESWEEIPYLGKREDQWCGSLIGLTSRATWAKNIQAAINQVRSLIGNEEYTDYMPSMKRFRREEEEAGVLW
smiles,measurement,setting,value
CCCCCOC(=O)c1c(N)n(CCOC)c2nc3ccccc3nc12,AC50,[1],15.7 µM (active)
COC(=O)CSC1=NS(=O)(=O)c2ccccc21,IC50,[2],23.2 µM (active)
same,IC50,[3],> 47.1 µM (inactive)
same,EC50,[4],> 53 µM (inactive)
Cc1sc2ncnc(N3CCC(C(=O)Nc4ccccc4C(C)(C)C)CC3)c2c1C,AC50,[5],16.8 µM (active)
Cc1ccc(S(=O)(=O)N2CCCCC2)cc1NC(=S)NC(=O)c1ccco1,IC50,[6],> 66 µM (inactive)
same,IC50,[7],> 66 µM (inactive)
O=C(Cc1ccc(Br)cc1)N1CCN(c2ccccn2)CC1,IC50,[6],> 66 µM (inactive)
same,IC50,[7],> 66 µM (inactive)
COc1cccc(NC(=O)CN(C)C(=O)CSC(=S)N2CCCC2)c1,IC50,[6],> 66 µM (inactive)
same,IC50,[7],> 66 µM (inactive)
c1ccc(P(c2ccccn2)c2ccccn2)cc1,IC50,[6],> 66 µM (inactive)
same,IC50,[7],> 66 µM (inactive)
O=C(CSc1nc2c(c(=O)n1-c1ccc(Br)cc1)SCC2)NCc1ccco1,AC50,[8],43 µM (active)
COc1ccc(C(=O)NC(=S)NCc2cccnc2)cc1[N+](=O)[O-],IC50,[6],> 66 µM (inactive)
same,IC50,[7],> 66 µM (inactive)
Cc1cccc(CN2CCN(Cc3ccc(Cl)cc3)CC2)c1,AC50,[5],53.2 µM (active)
O=C(Oc1ccccc1)c1cc(O)c(O)c(O)c1,AC50,[1],4.01 µM (active)
O=C(/C=C/c1ccco1)Oc1cc(Br)cc(/C=N/NC(=O)c2ccccc2O)c1,EC50,[9],> 160 µM (inactive)
same,EC50,[10],5.69 µM (active)
same,EC50,[11],8.58 µM (active)
same,EC50,[12],7.54 µM (active)
same,EC50,[13],2.62 µM (active)
same,EC50,[14],1.49 µM (active)
same,EC50,[15],15.2 µM (active)
same,EC50,[16],5.62 µM (active)
same,AC50,[5],5.21 µM (active)
Nc1ccc(Nc2ccncc2)cc1,IC50,[17],247 µM (active)
same,AC50,[18],16.9 µM (active)
CCc1c(C2CC2)ncn1Cc1cccc(-c2ccccc2)c1,AC50,[18],24.5 µM (active)
Cc1cc(N/N=C/c2ccc(O)cc2)c2cccc(C)c2n1,AC50,[18],2.56 µM (active)
CN(C)c1ccc2nc3ccc(=[N+](C)C)cc-3sc2c1 [METHYLENE BLUE ANHYDROUS],EC50,[19],187 µM (active)
same,EC50,[20],114 µM (active)
same,AC50,[18],0.936 µM (active)
